{
  "source": "patent US8039585B2",
  "about": "“Therapeutic administration of the scrambled anti-angiogenic peptide C16Y” (The United States of America as represented by the …, priority 2004, dated 2011)",
  "key": {"HUVECs": {"system": "HUVECs", "assay": "Endothelial cell tube-forming assay on Matrigel", "format": "cell-based, human", "set-up": "key to Disruption of tube formation / Activity (tube formation, truncated C16Y peptides): +: tubes slightly affected; ++: tubes moderately affected; +++: tubes disrupted; ++++: tubes completely disrupted; −: tubes resemble control", "details": "for Activity (tube formation, truncated C16Y peptides): truncated versions of C16Y, concentration not given; for Disruption of tube formation: 16 hours", "experimental": "FIG. 3: Disruption of endothelial cell tube formation by C16Y peptide. 48-well plates were coated with 200 μl of Matrigel per well. Each well was treated with RPMI containing 24,000 human umbilical vein endothelial cells (HUVECS) and 100 mg/L endothelial cell growth factor in the presence of 10-75 μg/ml of C16 or scrambled C16 peptide for 16 hours. Control wells contained medium only. Cells were fixed and stained, and tube formation was scored by a blinded observer.\nTube-forming assays were performed as described previously (Ponce 2001). 48-well plates were coated with 200 μl/well of Matrigel (Gho 2001; Kubota 1988), a basement membrane matrix. HUVECs (24,000 cells/well) were plated in RPMI 1640 containing 10% bovine calf serum, defined and supplemented (HyClone Laboratories, Inc., Logan, Utah), along with 100 mg/liter of endothelial cell growth factor (Collaborative Biomedical). C16 or scrambled C16 peptides were added at concentrations ranging from 10-75 μg/ml. Control wells contained medium only. After 16 hours, cells were fixed and stained with Diff-Quick fixative (methanol) and solution II (6.25% (w/v) each of azure A and methylene blue) (Dade A G, Dudingen, Switzerland), and tube formation was scored by a blinded observer. Each peptide was tested at least in triplicate, and the assays were repeated a minimum of three times.\nTube formation assays were repeated using truncated versions of the C16Y peptide to determine the minimal active sequence of the peptide. The carboxyl end of C16Y was not necessary for activity, whereas the amino terminal aspartic acid was required. The minimal active sequence for the C16Y peptide is shown in SEQ ID NO: 2. Each of the peptides containing at least this 8 amino acid sequence (SEQ ID NOs: 1-5) inhibited tube formation."}, "[1]": {"system": "human umbilical vein endothelial cells (HUVECs)", "assay": "Endothelial cell adhesion to peptide-coated plates", "format": "cell-based", "details": "0-5 μg coated, 1.5 hours", "experimental": "FIG. 1: Endothelial cell adhesion by C16 and scrambled C16 peptides. 96-well plates were coated with either laminin-1 (0.5 μg), C16 peptide (0-5 μg), or scrambled C16 peptide (0-5 μg). Each well was rinsed with PBS, blocked with BSA, rinsed again with PBS, and then treated with 0.1 ml of RPMI containing 35,000 human umbilical vein endothelial cells (HUVECs) for 1.5 hours at 37° C. Unbound cells were decanted, and attached cells were stained with crystal violet and quantified by measuring their absorbance at 600 nm. Cells adhered to C16, C16S, and C16Y peptides. More cells adhered to C16Y than to any other peptide at all concentrations tested. Bars represent ±SD.\nEndothelial cell adhesion assays were performed on 96-well plates coated overnight with either laminin-1 (0.5 μg) or synthetic laminin peptides C16, C16S, C16J, C16L, or C16Y (0-5 μg) as described previously (Malinda 1999). Wells were rinsed with PBS, blocked with 2 mg/ml of BSA, and rinsed again with PBS. Cell adhesion was performed using 0.1 ml of RPMI 1640 containing 35,000 HUVECs. After a 1.5-hour incubation period at 37° C., unbound cells were decanted and attached cells were fixed and stained with 20% methanol/0.2% crystal violet. Dishes were extensively rinsed, and bound dye was solubilized in 2% SDS and quantitated at 600 nm. Assays were done in triplicate at least three times."}, "[2]": {"system": "endothelial cell attachment to laminin-1", "assay": "Competition assay: block of endothelial cell adhesion to laminin-1", "format": "cell-based, human", "experimental": "FIG. 2: Ability of C16 and scrambled C16 peptides to block laminin-1 endothelial cell adhesion. 96-well plates were coated with laminin-1 (0.5 μg) in the presence of competing C16 or scrambled C16 peptides (0-100 μg/ml). Each wells was treated with 0.1 ml of RPMI containing 35,000 human umbilical vein endothelial cells (HUVECs) for 1.5 hours at 37° C. Unbound cells were decanted, and attached cells were stained with crystal violet and quantified by measuring their absorbance at 600 nm. […] Bars represent ±SD.\nCompetition experiments were done using 96-well plates coated with laminin-1 (0.5 μg) in the presence of 0-100 μg/ml of competing C16, C16S, C16J, C16L, or C16Y synthetic laminin peptide as specified. Control wells were coated with BSA only. Wells were contacted with 0.1 ml of RPMI 1640 containing 35,000 HUVECs. After a 1.5-hour incubation at 37° C., unbound cells were decanted and attached cells were fixed and stained with 20% methanol/0.2% crystal violet. Dishes were extensively rinsed, and bound dye was solubilized in 2% SDS and quantitated at 600 nm. Assays were done in triplicate at least three times."}, "[3]": {"system": "tumor growth and lung colonization", "details": "Fridman 1990; cited from earlier work"}, "[4]": {"assay": "Toxicity statement (no method described)"}},
  "note": "Ends that are not written are not given here.",
  "data": [
    {"substance": "DFKLFA", "values": [
      {"measurement": "Activity (tube formation, truncated C16Y peptides)", "setting": "HUVECs", "result": "−"}
    ]},
    {"substance": "DFKLFAVYI [truncated version of C16Y]", "values": [
      {"measurement": "Activity (tube formation, truncated C16Y peptides)", "setting": "HUVECs", "result": "++"}
    ]},
    {"substance": "DFKLFAV [truncated version of C16Y]", "values": [
      {"measurement": "Activity (tube formation, truncated C16Y peptides)", "setting": "HUVECs", "result": "−"}
    ]},
    {"substance": "FAVYIKYR [truncated version of C16Y]", "values": [
      {"measurement": "Activity (tube formation, truncated C16Y peptides)", "setting": "HUVECs", "result": "−"}
    ]},
    {"substance": "DFKLFAVYIKY [truncated version of C16Y]", "values": [
      {"measurement": "Activity (tube formation, truncated C16Y peptides)", "setting": "HUVECs", "result": "++"}
    ]},
    {"substance": "C16L: scrambled peptide of C16 (LTFRAKVYFIKD-NH2) [Peptide C16L]", "values": [
      {"measurement": "Endothelial cell adhesion to coated peptide", "setting": "[1]", "result": "did not attach"},
      {"measurement": "Dose showing some inhibition of attachment to laminin-1", "setting": "[2]", "result": "> 75", "unit": "µg/mL"},
      {"measurement": "Effect on endothelial tube formation", "setting": "HUVECs", "result": "no activity at lower doses and only slight tube disruption at higher concentrations"},
      {"measurement": "Disruption of tube formation", "setting": "HUVECs; peptide concentration 10 μg/ml", "result": "−"},
      {"measurement": "Disruption of tube formation", "setting": "HUVECs; peptide concentration 25 μg/ml", "result": "−"},
      {"measurement": "Disruption of tube formation", "setting": "HUVECs; peptide concentration 50 μg/ml", "result": "+"},
      {"measurement": "Disruption of tube formation", "setting": "HUVECs; peptide concentration 75 μg/ml", "result": "++"}
    ]},
    {"substance": "DRKL", "values": [
      {"measurement": "Activity (tube formation, truncated C16Y peptides)", "setting": "HUVECs", "result": "−"}
    ]},
    {"substance": "SEQ ID NO: 6: peptide having the fibronectin sequence (residues 1023-1033) of c-elegans (DYKYFAVYYR) [reference compound]", "values": [
      {"measurement": "Effect on endothelial tube formation", "setting": "HUVECs", "result": "no ability to block endothelial tube formation"}
    ]},
    {"substance": "VYIKYR", "values": [
      {"measurement": "Activity (tube formation, truncated C16Y peptides)", "setting": "HUVECs", "result": "−"}
    ]},
    {"substance": "LFAVYIKYR [truncated version of C16Y]", "values": [
      {"measurement": "Activity (tube formation, truncated C16Y peptides)", "setting": "HUVECs", "result": "−"}
    ]},
    {"substance": "KLFAVYIKYR [truncated version of C16Y]", "values": [
      {"measurement": "Activity (tube formation, truncated C16Y peptides)", "setting": "HUVECs", "result": "−"}
    ]},
    {"substance": "FKLFAVYIKYR [truncated version of C16Y]", "values": [
      {"measurement": "Activity (tube formation, truncated C16Y peptides)", "setting": "HUVECs", "result": "−"}
    ]},
    {"substance": "YIKYR", "values": [
      {"measurement": "Activity (tube formation, truncated C16Y peptides)", "setting": "HUVECs", "result": "−"}
    ]},
    {"substance": "DFKLF", "values": [
      {"measurement": "Activity (tube formation, truncated C16Y peptides)", "setting": "HUVECs", "result": "−"}
    ]},
    {"substance": "AVYIKYR [truncated version of C16Y]", "values": [
      {"measurement": "Activity (tube formation, truncated C16Y peptides)", "setting": "HUVECs", "result": "−"}
    ]},
    {"substance": "YIGSR", "values": [
      {"measurement": "Activity lower than that of C16Y", "setting": "[3]", "result": "~10", "unit": "fold"}
    ]},
    {"substance": "C16J: scrambled peptide of C16 (IKDYLTFARVKF-NH2) [Peptide C16J]", "values": [
      {"measurement": "Endothelial cell adhesion to coated peptide", "setting": "[1]", "result": "only weakly bound"},
      {"measurement": "Inhibitory activity on laminin-1 cell adhesion", "setting": "[2]; 0-100 μg/ml competing peptide", "result": "little activity at all of the doses tested"},
      {"measurement": "Effect on endothelial tube formation", "setting": "HUVECs", "result": "no activity at lower doses and only slight tube disruption at higher concentrations"},
      {"measurement": "Disruption of tube formation", "setting": "HUVECs; peptide concentration 10 μg/ml", "result": "−"},
      {"measurement": "Disruption of tube formation", "setting": "HUVECs; peptide concentration 25 μg/ml", "result": "−"},
      {"measurement": "Disruption of tube formation", "setting": "HUVECs; peptide concentration 50 μg/ml", "result": "−"},
      {"measurement": "Disruption of tube formation", "setting": "HUVECs; peptide concentration 75 μg/ml", "result": "−"}
    ]},
    {"substance": "DFKLFAVYIKYR-NH2 [Peptide C16Y, DFKLFAVYIKYR]", "values": [
      {"measurement": "Toxicity", "setting": "[4]", "result": "not toxic"}
    ]},
    {"substance": "DFKLFAVY (DFKLFAVY-NH2)", "values": [
      {"measurement": "Activity (tube formation, truncated C16Y peptides)", "setting": "HUVECs", "result": "++"}
    ]},
    {"substance": "DFKLFAVYIK [truncated version of C16Y]", "values": [
      {"measurement": "Activity (tube formation, truncated C16Y peptides)", "setting": "HUVECs", "result": "++"}
    ]}
  ]
}
